Literature values, collected in patent US10201174B2, “Process for reducing contaminating Michael acceptor levels in oxycodone and other compositions” (Controlled Chemicals, Inc., priority 2005, dated 2019).

Conditions: thiol group ionisation, aqueous

In the case of `O=C(O)c1cc(S)ccc1[N+](=O)[O-]` [5-mercapto-2-nitro-benzoic acid], the “pKSH / pK of the thiol-containing compound” value is listed as 4.8.

In the case of `O=C([O-])CS.[Na+]` [sodium thioglycolate], the “pKSH / pK of the thiol-containing compound” value is given as 10.3.
